Data on 3 compounds can be found in patent US20240173289A1, “USE OF OXYMETHYL-MODIFIED DERIVATIVE OF QUERCETIN IN PREPARATION OF DRUG FOR INHIBITING TUMOR CELL PROLIFERATION” (ZHEJIANG UNIVERSITY, priority 2021, published 2024).

Data set [1] concerns HepG2 transplanted tumors. The data set can be described thus: proliferation of HepG2 transplanted tumors in nude mice in vivo. Also noted: species or system BALB/c nude mice. The note with it: 10 mg/kg bw·d intraperitoneal; day 12. The procedure:
BALB/c nude mice (5 to 6 weeks old), weighing 19 g to 22 g, were purchased from Shanghai Experimental Animal Center, Chinese Academy of Sciences. HepG2 cells were collected in a serum-free DMEM medium to make a cell suspension, and then the cell suspension was injected into an underarm area of each mouse, approximately 2.0×10^6 cells, one site per mouse. All mice were bred in the Experimental Animal Center of Zhejiang University, under the environment of 23° C. to 25° C., humidity 50% to 60%, and cycle of 12 h light illumination/dark 12 h. After tumor formation, the mice were randomly divided into 3 groups with 7 mice in each group. The model group was given saline by intraperitoneal injection; the positive drug group was given tegafur at 10 mg/kg bw·d by intraperitoneal injection; the treatment group was intraperitoneally injected with the quercetin 3,3′-dimethyl ether at 50 mg/kg bw·d. According to the change of tumor volume, after the tumor formed, intraperitoneal injection was conducted every 1 d to 2 d, the tumor volume was measured, and the body weight of the mice was weighed. When there was a significant difference in tumor volume between different treatment groups, the mice were sacrificed by cervical dislocation, and the tumor tissue was carefully peeled off, weighed, and calculated. The formulas were: tumor formation rate (%)=(number of tumor-forming mice in treatment group/number of tumor-forming mice in inoculation group)×100; tumor inhibition rate (%)=(average tumor weight in control group (g)−average tumor weight in administration group (g))/average tumor weight in control group (g)×100. Serum, liver, spleen, and kidney were collected and weighed.

The test system of data set [2] is Osteosarcoma cell line HOS. Description: in vitro cell proliferation inhibition (CCK-8). The note with it: 48 h incubation. In kind it is cell-based.
Source text: (§1) Osteosarcoma cell line 143B, HOS, and U2, liver cancer cell line HepG2, breast cancer cell line MDA-MB-231 and T47D, gastric cancer cell line AGS, BGC-823, and SGC-7901, cervical cancer cells Hela, lung cancer cells A549, intestinal cancer cells Caco2, mouse glioma cells BV-2, human prostate cancer cells PC3, human thyroid cancer cell line BCPAP, human normal liver cell line L02, human normal gastric cell line GES, human umbilical vein epithelial cells HUVEC, and human embryonic lung fibroblasts WI-38 were cultured in a DMEM medium containing 10% fetal bovine serum and 1×HEPES in a humid incubator (37° C., 5% CO2). The cells were passaged with trypsin-EDTA in logarithmic phase. Certain density of cells (AGS, T47D, Caco2, BCPAP, GES, HUVEC 1×10^5 cells per well; HepG2, MDA-MB-231, BGC-823, A549, PC3, L02 8×10^4 cells per well; 143B, HOS, U2, SGC-7901, Hela, BV-2, 5×10^4 cells per well; WI-38, 3×10^5 cells per well) were inoculated in a 96-well plate, and cultured for 24 h before treatment. After replacing a fresh medium, 12.5 mg/L to 400 mg/L of quercetin, quercetin 3-methyl ether, and quercetin 3,3′-dimethyl ether dissolved with DMSO were added into the medium (a final volume ratio was 0.1%, and the DMSO was used as a […]). After incubation for 48 h, a complete medium was replaced with a serum-free medium containing 10% CCK-8 reagent. The absorbance at 450 nm and 620 nm was measured separately after the cells were incubated for 1 h. Each experiment was repeated three times independently.
as §1, with “400 mg/L,” for “400 mg/L”, “of” for “of quercetin, quercetin 3-methyl ether, and”, “DMSO was” for “DMSO were”, “into a” for “into the”

Data set [3] concerns cervical cancer cells Hela. Description: in vitro cell proliferation inhibition (CCK-8). In kind it is cell-based. The note with it: 48 h incubation.
Source text: as §1
as §1, with “400 mg/L,” for “400 mg/L”, “of” for “of quercetin, quercetin 3-methyl ether, and”, “DMSO was” for “DMSO were”, “into a” for “into the”

In data set [4] the test system is gastric cancer cell line AGS. The data set can be described thus: in vitro cell proliferation inhibition (CCK-8). The format is cell-based. The note with it: 48 h incubation.
Source text: as §1
as §1, with “400 mg/L,” for “400 mg/L”, “of” for “of quercetin, quercetin 3-methyl ether, and”, “DMSO was” for “DMSO were”, “into a” for “into the”

The subject of data set [5] is breast cancer cell line T47D. Description: in vitro cell proliferation inhibition (CCK-8). In kind it is cell-based. The note with it: 48 h incubation.
Source text: as §1
as §1, with “400 mg/L,” for “400 mg/L”, “of” for “of quercetin, quercetin 3-methyl ether, and”, “DMSO was” for “DMSO were”, “into a” for “into the”

In data set [6] the test system is human thyroid cancer cell line BCPAP. The data set can be described thus: in vitro cell proliferation inhibition (CCK-8). The format is cell-based. The conditions noted are these: 48 h incubation.
Source text: as §1
as §1, with “400 mg/L,” for “400 mg/L”, “of” for “of quercetin, quercetin 3-methyl ether, and”, “DMSO was” for “DMSO were”, “into a” for “into the”

The test system of data set [7] is Osteosarcoma cell line U2. The data set can be described thus: in vitro cell proliferation inhibition (CCK-8). In kind it is cell-based. The note with it: 48 h incubation.
Source text: as §1
as §1, with “400 mg/L,” for “400 mg/L”, “of” for “of quercetin, quercetin 3-methyl ether, and”, “DMSO was” for “DMSO were”, “into a” for “into the”

The test system of a further data set is mouse glioma cells BV-2. Description: in vitro cell proliferation inhibition (CCK-8). In kind it is cell-based. The conditions noted are these: BV2, 48 h incubation.
Source text: as §1
as §1, with “400 mg/L,” for “400 mg/L”, “of” for “of quercetin, quercetin 3-methyl ether, and”, “DMSO was” for “DMSO were”, “into a” for “into the”

Another data set deals with lung cancer cells A549. The data set can be described thus: in vitro cell proliferation inhibition (CCK-8). The conditions noted are these: 48 h incubation. In kind it is cell-based.
Source text: as §1
as §1, with “400 mg/L,” for “400 mg/L”, “of” for “of quercetin, quercetin 3-methyl ether, and”, “DMSO was” for “DMSO were”, “into a” for “into the”

In data set [8] the test system is gastric cancer cell line BGC-823. Description: in vitro cell proliferation inhibition (CCK-8). The format is cell-based.
Source text: as §1
as §1, with “400 mg/L,” for “400 mg/L”, “of” for “of quercetin, quercetin 3-methyl ether, and”, “DMSO was” for “DMSO were”, “into a” for “into the”

Data set [9] deals with breast cancer cell line MDA-MB-231. The data set can be described thus: in vitro cell proliferation inhibition (CCK-8). The format is cell-based. The conditions noted are these: 48 h incubation.
Source text: as §1
as §1, with “400 mg/L,” for “400 mg/L”, “of” for “of quercetin, quercetin 3-methyl ether, and”, “DMSO was” for “DMSO were”, “into a” for “into the”

For data set [10], the system named is human prostate cancer cells PC3. The data set can be described thus: in vitro cell proliferation inhibition (CCK-8). The format is cell-based. The note with it: 48 h incubation.
Source text: as §1
as §1, with “400 mg/L,” for “400 mg/L”, “of” for “of quercetin, quercetin 3-methyl ether, and”, “DMSO was” for “DMSO were”, “into a” for “into the”

Data set [11] has as its system liver cancer cell line HepG2. The data set can be described thus: in vitro cell proliferation inhibition (CCK-8). In kind it is cell-based. The note with it: 48 h incubation.
Source text: as §1
as §1, with “400 mg/L,” for “400 mg/L”, “of” for “of quercetin, quercetin 3-methyl ether, and”, “DMSO was” for “DMSO were”, “into a” for “into the”

Data set [12] has as its system Osteosarcoma cell line 143B. Description: in vitro cell proliferation inhibition (CCK-8). In kind it is cell-based. The conditions noted are these: 48 h incubation.
Source text: as §1
as §1, with “400 mg/L,” for “400 mg/L”, “of” for “of quercetin, quercetin 3-methyl ether, and”, “DMSO was” for “DMSO were”, “into a” for “into the”

The test system of data set [13] is gastric cancer cell line SGC-7901. Description: in vitro cell proliferation inhibition (CCK-8). The format is cell-based.
Source text: as §1
as §1, with “400 mg/L,” for “400 mg/L”, “of” for “of quercetin, quercetin 3-methyl ether, and”, “DMSO was” for “DMSO were”, “into a” for “into the”

For data set [14], the system named is intestinal cancer cells Caco2. The data set can be described thus: in vitro cell proliferation inhibition (CCK-8). In kind it is cell-based.
Source text: as §1
as §1, with “400 mg/L,” for “400 mg/L”, “of” for “of quercetin, quercetin 3-methyl ether, and”, “DMSO was” for “DMSO were”, “into a” for “into the”

Each structure is given as a SMILES string. Converted amounts (≈) assume the structure as drawn. Where two headings read alike, the source gives them in different places. Some results are limits rather than exact numbers.

On to `O=c1[nH]c(=O)n(C2CCCO2)cc1F` (stereo not shown) [tegafur, reference compound], for which the “mortality of the mice” value in data set [1] is on record as “all dead”.
With `O=c1c(O)c(-c2ccc(O)c(O)c2)oc2cc(O)cc(O)c12` [Quercetin, quercetin], the IC50 in data set [2] (read-out: IC50) is greater than 400 µg/mL; in [3] (Homo sapiens, read-out: IC50) it was 196 µg/mL (≈ 648 µM); in data set [4] (read-out: IC50) it was 329 µg/mL (≈ 1090 µM); in data set [5] (Homo sapiens, read-out: IC50), greater than 400 µg/mL; in [6] (Homo sapiens, read-out: IC50) it was 391 µg/mL (≈ 1290 µM); in data set [7] (read-out: IC50), greater than 400 µg/mL. The IC50 in the data set with mouse glioma cells BV-2 (Mus musculus, Glioma cell, read-out: IC50) was greater than 400 µg/mL; with lung cancer cells A549 (Homo sapiens, read-out: IC50) it was greater than 400 µg/mL; in data set [8] (Homo sapiens, BGC-823, BGC823, 48 h incubation, read-out: IC50), greater than 400 µg/mL; in data set [9] (Homo sapiens, read-out: IC50), 331 µg/mL (≈ 1090 µM); in [10] (Homo sapiens, read-out: IC50), greater than 400 µg/mL; in data set [11] (Homo sapiens, read-out: IC50), 155 µg/mL (≈ 513 µM). The IC50 in data set [12] (Homo sapiens, read-out: IC50) is greater than 400 µg/mL; in [13] (Homo sapiens, SGC-7901, SGC7901, 48 h incubation, read-out: IC50), greater than 400 µg/mL; in data set [14] (Homo sapiens, Caco-2, 48 h incubation, read-out: IC50), greater than 400 µg/mL.
As to `COc1c(-c2ccc(O)c(O)c2)oc2cc(O)cc(O)c2c1=O` [Quercetin 3-methyl ether, quercetin 3-methyl ether], the IC50 in data set [2] was 130.84 µg/mL (≈ 414 µM); in [3] it was 82.34 µg/mL (≈ 260 µM); in [4], 117.04 µg/mL (≈ 370 µM); in data set [5], 154.72 µg/mL (≈ 489 µM); in data set [6], 157.67 µg/mL (≈ 499 µM); in data set [7], 377.08 µg/mL (≈ 1190 µM). Further, the IC50 with mouse glioma cells BV-2 was found to be 288.00 µg/mL (≈ 911 µM); with lung cancer cells A549, 252.27 µg/mL (≈ 798 µM); in [8] (BGC823, 48 h incubation), 192.55 µg/mL (≈ 609 µM); in data set [9], 92.14 µg/mL (≈ 291 µM); in data set [10] it was 368.40 µg/mL (≈ 1160 µM); in data set [11], 58.45 µg/mL (≈ 185 µM). In addition, the IC50 in [12] worked out at 210.34 µg/mL (≈ 665 µM); in data set [13] (SGC7901, 48 h incubation), 123.94 µg/mL (≈ 392 µM); in data set [14] (48 h incubation), 215.61 µg/mL (≈ 682 µM).
